Data from patent US12441693B2, “Targeting STAT sumoylation to enhance immune responses” (THE GEORGE WASHINGTON UNIVERSITY, priority 2018, dated 2025).
Entries after “also recorded” stand apart in the source; their conditions may differ.

Experiments:
Format in all cases: cell-based, human
[1] = test system: Interferon Stimulated Genes (ISGs); experiment: RNASeq of primary CD4 T cells; settings: IL-2 and HODHBt vs IL-2 and DMSO
Description: RNASeq was performed in primary CD4 T cells treated with HODHBt following the method of Bosque et al., CELL REP. 2017; 18(5):1324-1334, the disclosure of which is hereby incorporated by reference in its entirety.
Total RNA was extracted from cells using Trizol (Invitrogen 15596), polyadenylated RNA was enriched using NEXTflex Poly(A) Beads (Bioo Scientific 512980), and stranded libraries were prepared using a NEXTflex Rapid Directional qRNA-Seq Kit (Bioo Scientific 5130-02D). Sequencing was performed by the Iowa Institute of Human Genetics Genomics Division on an Illumina HiSeq 2500 using 125 base pair (bp) paired-end reads. Raw paired sequences were first trimmed to remove Illumina sequencing adapters and Bioo Scientific randomized 8-mer molecular indexes using Trim Galore! […] For RNA-Seq tracks, reads were then compiled using the genomecov (-split) function of bedtools 2.25.0, normalized by dividing the number of hg19-mapped reads within each sample by the average number of hg19-mapped reads across all nine samples, combined across donors, and visualized on the UCSC Genome Browser. For differential expression analysis, reads were counted over UCSC hg19 genes (26,364 entries) using the featureCounts (-p -B -C -M) function of Subread 1.5.0 (Liao et al., 2014). […]

STAT1, STAT5, Mx1 = experiment: Western blot of primary CD4 T cells (pSTAT1, pSTAT5, Mx1); settings: increased concentrations
Description: In general, samples are prepared and loaded on to a gel and during the electrophoresis the negatively charged proteins move toward the positively charged anode. In order to further analyze the proteins, they are transferred onto a membrane in a procedure called blotting. After the transfer, the membrane is blocked in order to prevent unwanted membrane-protein interaction in the following steps. To visualize the protein of interest the membrane is commonly first probed using a primary protein-specific antibody followed by a labeled secondary antibody used for detection. An image is taken of the membrane and the result is analyzed.

CD8 T cells = experiment: Expansion of polyclonally activated CD8 T cells with IL-2; settings: IL-2, vs DMSO/untreated
Description: For these tests, human CD4 and CD8 T cells were activated in vitro and expanded with interleukin-2 (IL-2) in the presence of DMSO (control vehicle) or HODHBt. […] Some immunotherapy strategies rely on the in vitro expansion of the own patient CD4 and CD8 T cells specific against a tumoral or a viral antigen.
To address whether SUMOylation controls STAT activation in human CD8 T cells, polyclonally activated CD8 T cells were cultured with IL-2 in the presence or absence of HODHBt and levels of phosphorylated STATs were measured by Western blot. […] Proliferation of CD8 T cells is dependent on the activation and phosphorylation of STAT5.

Granzyme B, TRAIL = experiment: Expression of cytotoxic molecules (Gzm B, TRAIL) in CD8 and CD4 T cells

With `O=c1c2ccccc2nnn1O` [HODHBt] the “expression of Interferon Stimulated Genes (RNASeq)” value [1] was “induction of several Interferon Stimulated Genes”, the “levels of myxovirus resistance 1 (Mx1)” value (STAT1, STAT5, Mx1) was “increased the levels” and the “levels of phosphorylated STAT1 and STAT5” value (STAT1, STAT5, Mx1) was “increased the levels of phosphorylated STAT1 and STAT5”. The “expansion of CD8 T cells” value (CD8 T cells) was “increased expansion; also recorded: enhanced the expansion of polyclonally activated CD8 T in 5 human donors”, the “levels of Gzm B in CD8 T cells” value (Granzyme B, TRAIL) was “increased the levels of Gzm B in CD8 T cells” and the “expression of Granzyme B in activated CD8 T cells” value (Granzyme B, TRAIL; cultured for three days) was “increased the levels of expression”. For the same compound, the “expression of TRAIL in activated CD8 T cells” value (Granzyme B, TRAIL; cultured for three days) was “increased the levels of expression”.
